Measured values taken from US20080009418A1, “Selective Inhibitors” (Alchemia LTD., priority 2004, published 2008).

Key:
Human δ-opioid (DOP) = target: T1, Human δ-opioid (DOP) (Homo sapiens, UniProt P41143); assay: Radioligand binding, human δ-opioid (DOP) membranes, FlashPlate, [3H]-Bremazocine; conditions: compound at 10 μM, [3H]-Bremazocine
T1 construct: purchased Perkin Elmer Biosignal
Outline: (§1)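 Cloned human receptor membranes were coated onto FlashPlate wells and incubated with radioligand and compound (added from a 0.5 mM DMSO daughter plate) for 1 hour at room temperature in the dark. Scintillation counting gave percent inhibition, with DMSO defining total and reference ligand defining non-specific binding.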

[1] = target: T2, Human neuropeptide Y (NPY-Y1) (Homo sapiens, UniProt P25929); assay: Radioligand binding, human neuropeptide Y NPY-Y1 membranes, FlashPlate, [125I]-PYY; conditions: compound at 10 μM, [125I]-PYY
T2 construct: purchased Perkin Elmer Biosignal
T2 sequence (P25929 1-384): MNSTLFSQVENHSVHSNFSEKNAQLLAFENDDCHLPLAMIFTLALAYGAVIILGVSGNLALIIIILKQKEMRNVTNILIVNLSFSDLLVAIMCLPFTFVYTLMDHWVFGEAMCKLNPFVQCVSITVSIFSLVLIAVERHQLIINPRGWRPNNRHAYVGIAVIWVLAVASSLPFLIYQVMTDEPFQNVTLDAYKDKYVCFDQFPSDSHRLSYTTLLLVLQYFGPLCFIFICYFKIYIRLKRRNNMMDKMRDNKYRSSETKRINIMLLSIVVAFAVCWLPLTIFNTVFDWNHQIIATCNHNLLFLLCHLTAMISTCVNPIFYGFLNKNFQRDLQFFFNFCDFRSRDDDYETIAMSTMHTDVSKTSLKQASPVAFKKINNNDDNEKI
Outline: as §1

[2] = target: T3, Human melanin-concentrating hormone (MCH1) (Homo sapiens, UniProt Q99705); assay: Radioligand binding, human melanin-concentrating hormone MCH1 membranes, FlashPlate, [125I]-S36057; conditions: compound at 10 μM; for A6 radioligand binding, percentage inhibition: [125I]-S36057
T3 construct: purchased Perkin Elmer Biosignal
T3 sequence (Q99705 whole entry): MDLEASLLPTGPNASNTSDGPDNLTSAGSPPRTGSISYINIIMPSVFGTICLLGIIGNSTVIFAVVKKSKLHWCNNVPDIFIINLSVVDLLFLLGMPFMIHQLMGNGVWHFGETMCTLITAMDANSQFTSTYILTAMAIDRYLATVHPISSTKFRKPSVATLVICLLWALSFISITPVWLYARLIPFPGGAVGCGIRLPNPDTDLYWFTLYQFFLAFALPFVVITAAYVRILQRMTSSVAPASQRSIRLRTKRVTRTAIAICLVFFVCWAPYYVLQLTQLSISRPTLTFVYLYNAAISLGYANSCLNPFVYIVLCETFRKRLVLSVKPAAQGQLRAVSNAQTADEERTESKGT
Outline: as §1

Mouse urotensin (mUR2) = target: T4, Mouse urotensin (mUR2) (Mus musculus, UniProt Q8VIH9); assay: Radioligand binding, mouse urotensin mUR2 membranes, FlashPlate, [125I]-Urotensin II; conditions: compound at 10 μM, [125I]-Urotensin II
T4 construct: purchased Perkin Elmer Biosignal
T4 sequence (Q8VIH9 1-385): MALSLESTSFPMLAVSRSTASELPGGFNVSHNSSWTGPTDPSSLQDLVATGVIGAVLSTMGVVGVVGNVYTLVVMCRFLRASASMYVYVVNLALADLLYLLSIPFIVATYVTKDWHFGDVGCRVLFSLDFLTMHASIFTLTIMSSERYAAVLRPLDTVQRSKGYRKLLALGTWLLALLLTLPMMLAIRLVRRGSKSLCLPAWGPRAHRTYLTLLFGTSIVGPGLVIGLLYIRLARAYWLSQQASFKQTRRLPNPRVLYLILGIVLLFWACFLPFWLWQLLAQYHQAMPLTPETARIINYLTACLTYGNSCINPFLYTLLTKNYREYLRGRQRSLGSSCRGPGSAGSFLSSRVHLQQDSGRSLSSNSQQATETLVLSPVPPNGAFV
Outline: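 Cloned mouse urotensin (mUR2) receptor membranes from Perkin Elmer Biosignal were immobilized in FlashPlate microplates using a proprietary coating. Each well got 19.5 μl buffer, then 0.5 μl of DMSO, reference ligand, or compound. Adding 5 μl of [125I]-Urotensin II, diluted to 5× final concentration in binding buffer, started binding. Plates were sealed with TopSeal-A and incubated 1 hour at room temperature in the dark. Wells were counted for 30 seconds each on a TopCount after a 60-second delay, and percentage inhibition was calculated.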

Human opioid (ORL1) = target: T5, Human opioid (ORL1) (Homo sapiens, UniProt P41146); assay: Radioligand binding, human opioid ORL1 membranes, FlashPlate, [125I]-Nociceptin; conditions: compound at 10 μM, [125I]-Nociceptin
T5 construct: purchased Perkin Elmer Biosignal
T5 sequence (P41146 whole entry): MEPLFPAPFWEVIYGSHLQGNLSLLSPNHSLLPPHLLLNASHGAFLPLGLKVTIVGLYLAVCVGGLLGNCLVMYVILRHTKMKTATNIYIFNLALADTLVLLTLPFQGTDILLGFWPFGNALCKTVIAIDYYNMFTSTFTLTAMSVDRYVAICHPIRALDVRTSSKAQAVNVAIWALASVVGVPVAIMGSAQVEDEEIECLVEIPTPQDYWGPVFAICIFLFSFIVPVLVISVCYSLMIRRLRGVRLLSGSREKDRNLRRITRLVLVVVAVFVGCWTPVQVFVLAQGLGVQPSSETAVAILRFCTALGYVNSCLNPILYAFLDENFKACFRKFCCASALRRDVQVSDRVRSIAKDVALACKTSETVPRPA
Outline: as §1

Human κ-Opioid (KOP) = target: T6, Human κ-Opioid (KOP) (Homo sapiens, UniProt P41145); assay: Radioligand binding, human κ-opioid (KOP) membranes, filtration, [3H]-Diprenorphine; conditions: compound at 10 μM, [3H]-Diprenorphine
T6 construct: purchased Perkin Elmer Biosignal
T6 sequence (P41145 whole entry): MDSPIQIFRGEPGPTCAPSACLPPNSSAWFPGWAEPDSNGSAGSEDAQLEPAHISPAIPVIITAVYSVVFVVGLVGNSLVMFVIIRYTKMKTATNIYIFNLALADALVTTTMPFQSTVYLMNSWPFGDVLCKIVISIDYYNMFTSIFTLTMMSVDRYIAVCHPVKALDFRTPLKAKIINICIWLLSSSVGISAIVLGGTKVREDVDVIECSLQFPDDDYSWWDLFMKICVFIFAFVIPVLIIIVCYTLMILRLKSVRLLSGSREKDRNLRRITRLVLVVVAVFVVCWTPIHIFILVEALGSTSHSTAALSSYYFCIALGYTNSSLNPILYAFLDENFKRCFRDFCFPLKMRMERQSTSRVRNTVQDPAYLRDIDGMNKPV
Outline: (§2)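 Filtration binding on cloned human receptor membranes (1 Unit/well), [125I]-Substance P for NK1 and [3H]-Diprenorphine for KOP, 1 h at room temperature. Filters PEI-presoaked, washed with cold 50 mM Tris-HCl pH 7.4, counted by scintillation; percent inhibition calculated, reference ligand defining non-specific binding.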

Human Melanocortin (MC4) = target: T7, Human Melanocortin (MC4) (Homo sapiens, UniProt P32245); assay: Radioligand binding, human melanocortin MC4 membranes, FlashPlate, [125I]-NDP-αMSH; conditions: compound at 10 μM, [125I]-NDP-αMSH
T7 construct: purchased Perkin Elmer Biosignal
T7 sequence (P32245 whole entry): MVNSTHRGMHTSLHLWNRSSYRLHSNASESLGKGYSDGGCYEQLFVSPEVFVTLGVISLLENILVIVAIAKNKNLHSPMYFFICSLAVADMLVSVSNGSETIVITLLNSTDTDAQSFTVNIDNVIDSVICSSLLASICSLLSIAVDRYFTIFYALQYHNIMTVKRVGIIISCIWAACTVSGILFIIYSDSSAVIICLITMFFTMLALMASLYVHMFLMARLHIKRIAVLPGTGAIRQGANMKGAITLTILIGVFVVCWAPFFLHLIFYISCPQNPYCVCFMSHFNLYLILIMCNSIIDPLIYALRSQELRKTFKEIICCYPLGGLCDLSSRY
Outline: as §1

Human Melanocortin (MC3) = target: T8, Human Melanocortin (MC3) (Homo sapiens, UniProt P41968); assay: Radioligand binding, human melanocortin MC3 membranes, FlashPlate, [125I]-NDP-αMSH; conditions: compound at 10 μM, [125I]-NDP-αMSH
T8 construct: purchased Perkin Elmer Biosignal
T8 sequence (P41968 whole entry): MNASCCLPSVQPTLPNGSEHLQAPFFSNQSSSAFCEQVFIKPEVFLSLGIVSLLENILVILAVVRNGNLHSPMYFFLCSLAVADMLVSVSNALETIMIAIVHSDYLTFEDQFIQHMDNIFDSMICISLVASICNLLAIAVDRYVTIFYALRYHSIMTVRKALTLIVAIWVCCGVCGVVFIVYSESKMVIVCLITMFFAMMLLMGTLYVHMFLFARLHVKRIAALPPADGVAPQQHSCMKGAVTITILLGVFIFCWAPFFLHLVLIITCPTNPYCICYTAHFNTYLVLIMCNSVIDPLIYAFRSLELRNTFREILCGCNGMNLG
Outline: as §1

Human melanocortin (MC5) = target: T9, Human melanocortin (MC5) (Homo sapiens, UniProt P33032); assay: Radioligand binding, human melanocortin MC5 membranes, FlashPlate, [125I]-NDP-αMSH; conditions: compound at 10 μM, [125I]-NDP-αMSH
T9 construct: purchased Perkin Elmer Biosignal
T9 sequence (P33032 whole entry): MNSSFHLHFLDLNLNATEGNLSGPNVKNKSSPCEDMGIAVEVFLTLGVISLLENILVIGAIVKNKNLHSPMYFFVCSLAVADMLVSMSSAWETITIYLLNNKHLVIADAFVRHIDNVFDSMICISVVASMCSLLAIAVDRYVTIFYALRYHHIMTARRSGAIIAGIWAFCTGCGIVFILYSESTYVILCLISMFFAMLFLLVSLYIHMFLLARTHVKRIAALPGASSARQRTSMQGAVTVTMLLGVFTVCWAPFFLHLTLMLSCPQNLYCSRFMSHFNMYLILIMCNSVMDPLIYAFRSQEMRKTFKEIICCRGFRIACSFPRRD
Outline: as §1

Human μ-opioid (MOP) = target: T10, Human μ-opioid (MOP) (Homo sapiens, UniProt P35372); assay: Radioligand binding, human μ-opioid (MOP) membranes, FlashPlate, [3H]-Naloxone; conditions: compound at 10 μM, [3H]-Naloxone
T10 construct: purchased Perkin Elmer Biosignal
T10 sequence (P35372 whole entry): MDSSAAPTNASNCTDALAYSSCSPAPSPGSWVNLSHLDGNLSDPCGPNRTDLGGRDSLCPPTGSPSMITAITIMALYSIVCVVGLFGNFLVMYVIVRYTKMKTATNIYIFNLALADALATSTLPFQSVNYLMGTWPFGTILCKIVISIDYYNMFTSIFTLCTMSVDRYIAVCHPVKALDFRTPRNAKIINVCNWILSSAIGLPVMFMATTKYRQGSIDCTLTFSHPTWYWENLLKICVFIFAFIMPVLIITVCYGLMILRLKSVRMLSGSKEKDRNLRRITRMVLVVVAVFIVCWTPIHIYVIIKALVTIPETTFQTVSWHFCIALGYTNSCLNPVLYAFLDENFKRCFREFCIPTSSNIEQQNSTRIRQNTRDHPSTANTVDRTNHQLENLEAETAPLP
Outline: as §1

Human neurokinin (NK1) = target: T11, Human neurokinin (NK1) (Homo sapiens, UniProt P25103); assay: Radioligand binding, human neurokinin NK1 membranes, filtration, [125I]-Substance P; conditions: compound at 10 μM, [125I]-Substance P
T11 construct: purchased Perkin Elmer Biosignal
T11 sequence (P25103 whole entry): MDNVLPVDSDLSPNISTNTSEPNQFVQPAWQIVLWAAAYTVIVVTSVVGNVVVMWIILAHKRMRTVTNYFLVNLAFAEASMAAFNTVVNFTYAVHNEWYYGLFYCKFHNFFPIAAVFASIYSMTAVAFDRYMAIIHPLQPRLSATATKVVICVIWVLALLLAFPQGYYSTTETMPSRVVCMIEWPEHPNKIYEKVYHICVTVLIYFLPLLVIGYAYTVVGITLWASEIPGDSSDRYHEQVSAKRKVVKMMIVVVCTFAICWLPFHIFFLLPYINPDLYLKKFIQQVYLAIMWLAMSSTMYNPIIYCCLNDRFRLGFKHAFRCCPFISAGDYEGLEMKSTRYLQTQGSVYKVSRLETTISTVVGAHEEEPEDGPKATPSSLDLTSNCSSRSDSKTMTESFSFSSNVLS
Outline: as §2

T1 sequence (P41143 whole entry): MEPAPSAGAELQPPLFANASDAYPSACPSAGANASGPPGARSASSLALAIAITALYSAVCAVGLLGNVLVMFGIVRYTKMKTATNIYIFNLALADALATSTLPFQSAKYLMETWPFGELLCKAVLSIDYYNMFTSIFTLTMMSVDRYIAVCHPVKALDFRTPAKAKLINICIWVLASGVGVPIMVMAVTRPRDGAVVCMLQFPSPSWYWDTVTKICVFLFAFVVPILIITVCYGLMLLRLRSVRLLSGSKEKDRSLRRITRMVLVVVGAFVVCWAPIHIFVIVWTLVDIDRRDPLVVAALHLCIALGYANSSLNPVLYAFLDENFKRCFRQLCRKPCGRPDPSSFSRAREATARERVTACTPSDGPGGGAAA

## COCC1OC(OCc2ccccc2)C(NC(=O)CCN)C(OCc2ccccc2)C1O (stereo not drawn) [compound 172]
Human δ-opioid (DOP)
  A1 radioligand binding, percentage inhibition: − (“−” indicates less than 50% inhibition at 10 μM)
[1]
  A9 radioligand binding, percentage inhibition: − (“−” indicates less than 50% inhibition at 10 μM)
[2]
  A6 radioligand binding, percentage inhibition: − (“−” indicates less than 50% inhibition at 10 μM)
Mouse urotensin (mUR2)
  A11 radioligand binding, percentage inhibition: − (“−” indicates less than 50% inhibition at 10 μM)
Human opioid (ORL1)
  A10 radioligand binding, percentage inhibition: − (“−” indicates less than 50% inhibition at 10 μM)
Human κ-Opioid (KOP)
  A2 radioligand binding, percentage inhibition: − (“−” indicates less than 50% inhibition at 10 μM)
Human Melanocortin (MC4)
  A4 radioligand binding, percentage inhibition: − (“−” indicates less than 50% inhibition at 10 μM)
Human Melanocortin (MC3)
  A3 radioligand binding, percentage inhibition: − (“−” indicates less than 50% inhibition at 10 μM)
Human melanocortin (MC5)
  A5 radioligand binding, percentage inhibition: − (“−” indicates less than 50% inhibition at 10 μM)
Human μ-opioid (MOP)
  A7 radioligand binding, percentage inhibition: − (“−” indicates less than 50% inhibition at 10 μM)
Human neurokinin (NK1)
  A8 radioligand binding, percentage inhibition: + (“+” indicates greater than 50% inhibition at 10 μM)

## NCCCC(=O)NC1C(OCc2ccc3ccccc3c2)OC(COCc2ccc3ccccc3c2)C(O)C1OCc1ccc2ccccc2c1 (stereo not drawn) [compound 393]
Human δ-opioid (DOP); human DOP membranes
  A1: inhibition of radioligand binding: − (“−” indicates less than 50% inhibition at 10 μM)
[1]; human NPY-Y1 membranes
  A9: inhibition of radioligand binding: − (“−” indicates less than 50% inhibition at 10 μM)
[2]; [125I]-S36057, human MCH1 membranes, 10 µM
  A6: inhibition of radioligand binding: − (“−” indicates less than 50% inhibition at 10 μM)
Mouse urotensin (mUR2); mouse mUR2 membranes
  A11: inhibition of radioligand binding: − (“−” indicates less than 50% inhibition at 10 μM)
Human opioid (ORL1); human ORL1 membranes, 10 µM
  A10: inhibition of radioligand binding: − (“−” indicates less than 50% inhibition at 10 μM)
Human κ-Opioid (KOP); human KOP membranes
  A2: inhibition of radioligand binding: − (“−” indicates less than 50% inhibition at 10 μM)
Human Melanocortin (MC4); human MC4 membranes, 10 µM
  A4: inhibition of radioligand binding: + (“+” indicates greater than 50% inhibition at 10 μM)
Human Melanocortin (MC3); human MC3 membranes, 10 µM
  A3: inhibition of radioligand binding: + (“+” indicates greater than 50% inhibition at 10 μM)
Human melanocortin (MC5); human MC5 membranes
  A5: inhibition of radioligand binding: + (“+” indicates greater than 50% inhibition at 10 μM)
Human μ-opioid (MOP); human MOP membranes, 10 µM
  A7: inhibition of radioligand binding: − (“−” indicates less than 50% inhibition at 10 μM)
Human neurokinin (NK1); human NK1 membranes
  A8: inhibition of radioligand binding: + (“+” indicates greater than 50% inhibition at 10 μM)

## [N-]=[N+]=N[C@H]1C(OCCNC(=N)N)O[C@H](COCc2ccccc2)[C@@H](O)[C@@H]1OCc1ccc2ccccc2c1 (stereo partly drawn) [compound 127]
Human δ-opioid (DOP)
  A1 radioligand binding, percentage inhibition: − (“−” indicates less than 50% inhibition at 10 μM)
[1]
  A9 radioligand binding, percentage inhibition: − (“−” indicates less than 50% inhibition at 10 μM)
[2]
  A6 radioligand binding, percentage inhibition: − (“−” indicates less than 50% inhibition at 10 μM)
Mouse urotensin (mUR2)
  A11 radioligand binding, percentage inhibition: − (“−” indicates less than 50% inhibition at 10 μM)
Human opioid (ORL1)
  A10 radioligand binding, percentage inhibition: − (“−” indicates less than 50% inhibition at 10 μM)
Human κ-Opioid (KOP)
  A2 radioligand binding, percentage inhibition: − (“−” indicates less than 50% inhibition at 10 μM)
Human Melanocortin (MC4)
  A4 radioligand binding, percentage inhibition: + (“+” indicates greater than 50% inhibition at 10 μM)
Human Melanocortin (MC3)
  A3 radioligand binding, percentage inhibition: − (“−” indicates less than 50% inhibition at 10 μM)
Human melanocortin (MC5)
  A5 radioligand binding, percentage inhibition: + (“+” indicates greater than 50% inhibition at 10 μM)
Human μ-opioid (MOP)
  A7 radioligand binding, percentage inhibition: − (“−” indicates less than 50% inhibition at 10 μM)
Human neurokinin (NK1)
  A8 radioligand binding, percentage inhibition: + (“+” indicates greater than 50% inhibition at 10 μM)
